# Assay results as given in BindingDB's records for doi:10.1021/jm0603668 (Merck Frosst Canada, 2007).
# Assay: Activity at human TP receptor in platelet rich plasma assessed as inhibition […]-induced platelet aggregation
row,IC50,SMILES
1,0.08 µM,"O=C(O)C[C@H]1CCc2c1n(Cc1ccc(Cl)cc1)c1c(Br)cc(F)cc21 [[(3R)-5-bromo-4-(4-chlorobenzyl)-7-fluoro-1,2,3,4-tetrahydrocyclopenta[b]indol-3-yl]acetic acid]"
2,1.4 µM,"CC(=O)c1cc(F)cc2c3c(n(Cc4ccc(Cl)cc4)c12)[C@@H](CC(=O)O)CC3 [[(3R)-4-(4-chlorobenzyl)-7-fluoro-5-acetyl-1,2,3,4-tetrahydrocyclopenta-[b]indol-3-yl]acetic acid]"
